Source: patent US4401660A, “Ester derivatives of 5-O-mycaminosyl tylonolide and method of using same” (Eli Lilly and Company, priority 1981, dated 1983)

Columns and labels:
Type in all cases: cell-based
Set-up in all cases: unit not given here
Mycoplasma gallisepticum = test: MIC, broth-dilution microtiter test (Table III)
Experimental: (§1) The MIC's in Table II were determined by standard agar-dilution assays. The MIC's in Table III were obtained using a conventional broth-dilution microtiter test.

Staphylococcus aureus = test: MIC, broth-dilution microtiter test (Table III)
Experimental: as §1

[1] = system: Pasteurella haemolytica 22C; test: MIC, broth-dilution microtiter test (Table III)
Experimental: as §1

[2] = system: Pasteurella multocida 22A; test: MIC, broth-dilution microtiter test (Table III)
Experimental: as §1

[3] = system: Pasteurella multocida 17E; test: MIC, broth-dilution microtiter test (Table III); conditions: bovine isolate
Experimental: as §1

[4] = system: Pasteurella haemolytica 41D; test: MIC, broth-dilution microtiter test (Table III)
Experimental: as §1

[5] = system: Pasteurella multocida 40G; test: MIC, broth-dilution microtiter test (Table III)
Experimental: as §1

Streptococcus sp. 80 = test: MIC, broth-dilution microtiter test (Table III)
Experimental: as §1

[6] = system: Pasteurella multocida 68C; test: MIC, broth-dilution microtiter test (Table III)
Experimental: as §1

Mycoplasma hyorhinis = test: MIC, broth-dilution microtiter test (Table III)
Experimental: as §1

Mycoplasma synoviae = test: MIC, broth-dilution microtiter test (Table III)
Experimental: as §1

[7] = system: Pasteurella multocida 60A; test: MIC, broth-dilution microtiter test (Table III); conditions: avian isolate
Experimental: as §1

[8] = system: Pasteurella haemolytica 23C; test: MIC, broth-dilution microtiter test (Table III)
Experimental: as §1

[9] = system: Haemophilus influenzae Holt; test: MIC, standard agar-dilution assay (Table II); conditions: ampicillin-sensitive strain
Experimental: as §1

[10] = system: Staphylococcus epidermidis EPI1; test: MIC, standard agar-dilution assay (Table II)
Experimental: as §1

[11] = system: Streptococcus pneumoniae Park I; test: MIC, standard agar-dilution assay (Table II)
Experimental: as §1

[12] = system: Staphylococcus aureus V41; test: MIC, standard agar-dilution assay (Table II); conditions: Staphylococcus aureus V41, penicillin-resistant strain
Experimental: as §1

[13] = system: Streptococcus pyogenes C203; test: MIC, standard agar-dilution assay (Table II)
Experimental: as §1

[14] = system: Staphylococcus aureus X1.1; test: MIC, standard agar-dilution assay (Table II)
Experimental: as §1

[15] = system: Haemophilus influenzae R252; test: MIC, standard agar-dilution assay (Table II); conditions: Haemophilus influenzae R252, ampicillin-resistant strain
Experimental: as §1

[16] = system: Streptococcus Group D X66; test: MIC, standard agar-dilution assay (Table II)
Experimental: as §1

[17] = system: Staphylococcus aureus S13E; test: MIC, standard agar-dilution assay (Table II)
Experimental: as §1

[18] = system: Staphylococcus aureus X400; test: MIC, standard agar-dilution assay (Table II); conditions: Staphylococcus aureus X400, methicillin-resistant strain
Experimental: as §1

[19] = system: Staphylococcus epidermidis EPI2; test: MIC, standard agar-dilution assay (Table II)
Experimental: as §1

[20] = system: Streptococcus Group D 9960; test: MIC, standard agar-dilution assay (Table II)
Experimental: as §1

Compound	minimal inhibitory concentration (MIC) (Mycoplasma gallisepticum)	minimal inhibitory concentration (MIC) (Staphylococcus aureus)	minimal inhibitory concentration (MIC) [1]	minimal inhibitory concentration (MIC) [2]	minimal inhibitory concentration (MIC) [3]	minimal inhibitory concentration (MIC) [4]	minimal inhibitory concentration (MIC) [5]	minimal inhibitory concentration (MIC) (Streptococcus sp. 80)	minimal inhibitory concentration (MIC) [6]	minimal inhibitory concentration (MIC) (Mycoplasma hyorhinis)	minimal inhibitory concentration (MIC) (Mycoplasma synoviae)	minimal inhibitory concentration (MIC) [7]	minimal inhibitory concentration (MIC) [8]	minimal inhibitory concentration (MIC) [10]	minimal inhibitory concentration (MIC) [11]	minimal inhibitory concentration (MIC) [12]	minimal inhibitory concentration (MIC) [13]	minimal inhibitory concentration (MIC) [14]	minimal inhibitory concentration (MIC) [15]	minimal inhibitory concentration (MIC) [16]	also measured
CCC1OC(=O)CC(O)C(C)C(OC2OC(C)C(O)C(N(C)C)C2OC(C)=O)C(CC=O)CC(C)C(=O)C=CC(C)=CC1COC(=O)Cc1cc(OC)ccc1OC (stereo not shown) [Compound 62]	< 0.05	0.78	6.25	3.12	3.12	3.12	3.12	0.195	6.25	0.78	< 0.05	12.5	6.25	0.125	0.03	0.25	0.06	0.25	2	0.125	minimal inhibitory concentration (MIC) [9]: 1; minimal inhibitory concentration (MIC) [17]: 0.125; minimal inhibitory concentration (MIC) [18]: 0.25; minimal inhibitory concentration (MIC) [19]: 0.25; minimal inhibitory concentration (MIC) [20]: 0.125
CCC1OC(=O)CC(O)C(C)C(OC2OC(C)C(O)C(N(C)C)C2OC(C)=O)C(CC=O)CC(C)C(=O)C=CC(C)=CC1COC(=O)C(Cl)(Cl)Cl (stereo not shown) [Compound 77]	0.78	1.56	12.5	50	3.12	12.5	25	0.78	25	3.12	0.78	3.12	12.5	1	0.25	2	0.25	1	1	1	minimal inhibitory concentration (MIC) [17]: 1; minimal inhibitory concentration (MIC) [18]: 2; minimal inhibitory concentration (MIC) [19]: 2; minimal inhibitory concentration (MIC) [20]: 1
